Measured values published in PMC11352409, “Subtype-Specific Ligand Binding and Activation Gating in Homomeric and Heteromeric P2X Receptors” (Biomolecules, 2024).
Where “and” joins values, the source holds several entries; their conditions need not be identical. Equal values may be shown once.

Tests used:
Assay type in all cases: cell-based
human P2X2/3 receptors = target: T1, human P2X2/3 receptors (Homo sapiens, UniProt P56373+Q9UBL9); assay: Whole-cell patch-clamp concentration-activation, HEK293 cells stably expressing hP2X2/3
T1 construct: expressed in transfected cells
T1 sequence (Q9UBL9 1-404 isoform Q9UBL9-2): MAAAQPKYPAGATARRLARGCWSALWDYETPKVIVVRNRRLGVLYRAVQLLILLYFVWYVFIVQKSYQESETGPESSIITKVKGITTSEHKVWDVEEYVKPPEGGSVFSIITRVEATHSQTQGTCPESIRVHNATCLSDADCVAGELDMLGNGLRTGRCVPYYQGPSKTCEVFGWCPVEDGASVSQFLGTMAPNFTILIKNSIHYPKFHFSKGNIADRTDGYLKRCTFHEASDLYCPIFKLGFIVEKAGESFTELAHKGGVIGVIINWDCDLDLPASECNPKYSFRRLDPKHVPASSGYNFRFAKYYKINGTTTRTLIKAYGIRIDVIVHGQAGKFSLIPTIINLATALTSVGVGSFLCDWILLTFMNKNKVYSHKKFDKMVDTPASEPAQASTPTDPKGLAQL
T1 sequence (P56373 1-397): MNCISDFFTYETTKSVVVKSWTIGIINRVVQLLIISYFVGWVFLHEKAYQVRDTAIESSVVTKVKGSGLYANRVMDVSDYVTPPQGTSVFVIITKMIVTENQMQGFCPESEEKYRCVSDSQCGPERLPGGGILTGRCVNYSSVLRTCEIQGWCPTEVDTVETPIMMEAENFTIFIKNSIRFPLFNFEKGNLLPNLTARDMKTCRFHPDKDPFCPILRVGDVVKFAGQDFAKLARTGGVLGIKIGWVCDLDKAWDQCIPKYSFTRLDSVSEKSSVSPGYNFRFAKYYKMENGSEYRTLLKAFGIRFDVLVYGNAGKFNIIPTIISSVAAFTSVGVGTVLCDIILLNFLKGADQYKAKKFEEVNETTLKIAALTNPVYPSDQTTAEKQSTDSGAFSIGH
Description: (§1) Human P2X receptors were expressed from HEK293 cell lines containing an inducible promoter system (Flp-In-T-REx 293, Invitrogen, Waltham, MA, USA). The used cell lines were: hP2X2 B (RRID: AC line CVCL_D6U1), hP2X3 (RRID: AC line CVCL_D6U3), and hP2X2/3 (RRID: AC line CVCL_D6U2). The cells were cultured in MEM supplemented with non-essential amino acids (Gibco, Waltham, MA, USA), 10% FCS, and antibiotics, according to the manufacturer’s instructions. For stable cell lines, Flp-In-T-REx 293 cells were transfected using the calcium phosphate method with a mixture of plasmids (0.3 µg pcDNA5/FRT/TO P2X gene and 1.5 µg pOG44) and selected for hygromycin resistance. The cells were seeded on glass coverslips for electrophysiological measurements and used 24–48 h after tetracycline induction ([…]).
(§2) Membrane currents were recorded with a standard patch-clamp technique in the whole-cell configuration. The patch pipettes were pulled from borosilicate glass (ID 1.0 mm, OD 2.0 mm; VITROCOM, Mountain Lakes, NJ, USA) using a micropipette puller (P-97, Sutter Instrument, Novato, CA, USA). The pipettes were filled with intracellular solution containing (mM) 142 NaCl, 5 BAPTA, 5 EGTA, and 10 HEPES at pH 7.4. The pipette resistance was from 2.0 to 6.0 MΩ. The bath solution contained (mM) 142 NaCl, 10 EGTA, 10 HEPES, and 10 glucose at pH 7.4. To increase the speed of recovery from the hP2X3 receptors, we additionally used a bath solution containing (mM) 142 NaCl, 10 HEPES, 10 glucose, 2 CaCl2, and 1 MgCl2. The cells were lifted for recording from the chamber bottom by the patch pipette and positioned in front of the outlet of the application pipette.
(§3) Solutions switches were carried out with the application pipette that had three barrels (inner diameter ~600 µm, Warner Instruments) controlled by a step motor (SF-77B, Warner Instruments). The speed of the laminar solution flow out of the barrels was estimated to be 2–5 cm/s. One barrel contained a control solution and another was connected to a solution selector (Vici Valco Instruments), which allowed us to apply different test solutions by exchanging the solution during the interval (60 sec for P2X2 and P2X2/3 receptors, 180 s for P2X3 receptors) of applying the control solution. Cells expressing hP2X3 were washed with 3 Units/mL apyrase for 30 min to remove ATP. To ensure the comparability of the data points between each application, we rinsed hP2X3 with the following solution for 3 min after each ATP application (mM): 142 NaCl, 10 HEPES, 10 glucose, 2 CaCl2, and 1 MgCl2 at pH 7.4. After sufficient recovery, we switched to the bath solution for 10 s and then to the solution of interest. The speed of the switch around a whole cell was estimated to be below 10 ms by switching between different salt solutions.
(§4) The saturation of activation was determined with ATP at 100 µM. The currents were recorded with a HEKA EPC 10 amplifier in combination with the patchmaster software. The sampling rate was 10 kHz and the recordings were on-line filtered at 2.9 kHz using a four-pole Bessel filter. The currents were recorded at a constant holding potential of −50 mV and the series resistance was compensated with the patchmaster software up to 80%.
(§5) The concentration–activation relationships from whole-cell measurements in the HEK293 cells were obtained from the maximum currents during ATP application. These current amplitudes were normalised with respect to the current at saturating ATP (100 µM) and the resulting data points were fitted I/ImaxATP = Amp/(1 + (EC50/[X])^h) (1) with the Origin 2019® software using a non-linear curve fitting routine. I is the actual current amplitude and ImaxATP is the maximum current amplitude at saturating ATP. The amplitude Amp is the efficacy of the respective ligands. EC50 is the ligand concentration generating the half-maximum current and h is the respective Hill coefficient. [X] is the actual concentration of ATP to be tested. […]

human P2X3 receptors = target: T2, human P2X3 receptors (Homo sapiens, UniProt P56373); assay: Whole-cell patch-clamp concentration-activation, HEK293 cells stably expressing hP2X3; conditions: for Hill: hP2X3, Hill coefficient of concentration-activation fit; for Effect (Fold in ATP Potency): hP2X3, relative to ATP; for Effect (Fold in ATP Efficacy): hP2X3, relative to current at 100 µM ATP; for EC50: hP2X3, whole-cell, -50 mV, divalent-cation-free bath with 10 mM EGTA, normalised to 100 µM ATP
T2 construct: expressed in transfected cells
T2 sequence (P56373 1-397): T1 sequence (P56373 1-397)
Description: as §1, §2, §3, §4, §5

human P2X2 receptors = target: T3, human P2X2 receptors (Homo sapiens, UniProt Q9UBL9); assay: Whole-cell patch-clamp concentration-activation, HEK293 cells stably expressing hP2X2; conditions: for Hill: hP2X2, Hill coefficient of concentration-activation fit; for Effect (Fold in ATP Potency): hP2X2, relative to ATP; for Effect (Fold in ATP Efficacy): hP2X2, relative to current at 100 µM ATP; for EC50: hP2X2, whole-cell, -50 mV, divalent-cation-free bath with 10 mM EGTA, normalised to 100 µM ATP
T3 construct: expressed in transfected cells
T3 sequence (Q9UBL9 1-404 isoform Q9UBL9-2): T1 sequence (Q9UBL9 1-404 isoform Q9UBL9-2)
Description: as §1, §2, §3, §4, §5

Row | Hill (human P2X2/3 receptors; hP2X2/3, Hill coefficient of concentration-activation fit) | Effect (Fold in ATP Potency) (human P2X2/3 receptors; hP2X2/3, relative to ATP) | Effect (Fold in ATP Efficacy) (human P2X2/3 receptors; hP2X2/3, relative to current at 100 µM ATP) | EC50 (human P2X2/3 receptors; hP2X2/3, whole-cell, -50 mV, divalent-cation-free bath with 10 mM EGTA, normalised to 100 µM ATP) | Hill (human P2X3 receptors) | Effect (Fold in ATP Potency) (human P2X3 receptors) | Effect (Fold in ATP Efficacy) (human P2X3 receptors) | EC50 (human P2X3 receptors) | Current response in presence of Mg2+ (human P2X2 receptors; hP2X2, 0.3 µM ATP with 1 mM MgCl2 (27.5 nM ATP4- + 272.5 nM Mg2+ATP)) | Hill (human P2X2 receptors) | Effect (Fold in ATP Potency) (human P2X2 receptors) | Effect (Fold in ATP Efficacy) (human P2X2 receptors) | EC50 (human P2X2 receptors) | Agonist behaviour (current response) (human P2X2 receptors; hP2X2, result in words) | SMILES
1 | 0.9 ± 0.1 | 1 fold | 1 fold | 2.7 ± 0.4 µM | 1.3 ± 0.2 | 1 fold | 1 fold | 1.1 ± 0.1 µM | completely abolished | 1.1 ± 0.1 | 1 fold | 1 fold | 0.7 ± 0.1 µM |  | Nc1ncnc2c1ncn2[C@@H]1O[C@H](COP(=O)(O)OP(=O)(O)OP(=O)(O)O)[C@@H](O)[C@H]1O [ATP]
2 |  |  |  |  | 1.6 ± 0.7 | 0.1 fold | 1.9 fold | 9.6 ± 3.3 µM |  | 1.7 ± 1.5 | 0.1 fold | 0.1 fold | ~6.8 µM and 6.8 µM | only partially | Nc1ncnc2c1ncn2[C@@H]1O[C@H](COP(=O)(O)CP(=O)(O)OP(=O)(O)O)[C@@H](O)[C@H]1O [α,βMe-ATP, αβmethylene-ATP]
